Test system: Murine leukemic P388 cells
Assay: In vivo anticancer activity, murine leukemic P388 model
Parameters: species or system DBA/2J mice
Details: mice intravenously inoculated with P388 cells; given P.O. or I.V. at different doses
Procedure: Evaluation of in vivo Anticancer Activity
The in vivo anticancer activities of the compounds were evaluated by the following murine leukemic P388 model. Inbred female DBA/2J mice of 4-5 week-old were purchased from the National Laboratory Animals Breeding and Research Center, Taipei, Taiwan, ROC. Murine leukemic P388 cells were purchased from the Japanese Collection of Research Bioresources, Japan. P388 cells were cultured and propagated in RPM11640 medium supplemented with 50 μM 2-mercaptoethanol and 10% fetal bovine serum. Mice at the age of 6 weeks were grouped as the treatment, negative control and positive control groups at 7 to 8 mice per group. All mice were intravenously inoculated with the P388 cells at one million per mouse one day before the treatments initiated. Compound 6 was dissolved in dimethyl sulfoxide (DMSO) and then diluted in 0.5% carboxymethyl cellulose or a Cremophor-based vehicle with the final concentration of DMSO less than 0.5%. Different treatment groups were orally (P.O.) or intravenously (I.V.) given, respectively, with Compound 6 of different doses for a pharmacological dose-response relationship. The mice of the negative control group were treated with the dosing vehicle only. […] The cancer cell-inoculated animals were monitored twice daily. Survival fractions of the mice were recorded. […]

Nc1nc(-c2cccs2)cn1-c1nc(-c2ccccc2)cs1 [Compound 6, 1-(4-phenyl-1,3-thiazol-2-yl)-4-(2-thienyl)-1H-2-imidazolamine]
survival rate of the inoculated mice: increased the survival rate

Source: patent publication US7569596B2, “Imidazolamino compounds” (National Health Research Institutes, priority 2002, dated 2009)
